Assay results from patent US12624024B2, “EP2 antagonist compounds” (Reservoir Neuroscience, Inc., priority 2021, dated 2026).

Each compound was assayed against T1, EP2 receptor (Homo sapiens, UniProt P43116) (assay: EP2 Potency Assay (cAMP TR-FRET, CHO-K1 cells transfected with EP2 receptor, PGE2 at EC80)). Conditions: CHO-K1 cells expressing EP2, prostaglandin E2 at EC80, read-out: EP2 Potency (IC50 category).
T1 construct: expressed in transfected cells; host or cells: CHO-K1 cells (ATCC), transient transfection with FuGENE 6
T1 sequence (P43116 whole entry): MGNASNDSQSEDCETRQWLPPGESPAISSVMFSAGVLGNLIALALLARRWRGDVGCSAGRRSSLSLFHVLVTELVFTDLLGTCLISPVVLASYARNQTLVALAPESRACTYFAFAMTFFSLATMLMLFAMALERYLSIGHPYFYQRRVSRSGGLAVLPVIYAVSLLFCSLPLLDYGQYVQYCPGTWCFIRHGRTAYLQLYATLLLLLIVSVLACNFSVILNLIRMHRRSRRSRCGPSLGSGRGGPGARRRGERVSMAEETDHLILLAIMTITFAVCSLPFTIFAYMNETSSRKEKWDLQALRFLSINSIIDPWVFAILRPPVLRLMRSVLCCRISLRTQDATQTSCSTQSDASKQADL
Format: cell-based
Method: Compound potency was measured using a cAMP TR-FRET assay.
After 6 hours incubation, the cell media was replaced with F12 medium supplemented with 10% FBS and 100 U/ml Pen-Strep. 24 hours after transfection, cells were harvested and seeded at a density of 3000 cells/well in a 384 well plate to perform the cAMP assay, using the LANCE Ultra cAMP assay kit (PerkinElmer).
Plates were then centrifuged at 1000 rpm for 1 min, agitated at 600 rpm at R.T. for 2 min, and incubated at 25° C. for 5 min. The reference agonist, prostaglandin E2 (MCE), was added to each well at the appropriate concentration to reach its EC80 value. Plates were then centrifuged at 1000 rpm for 1 min, agitated at 600 rpm at R.T. for 2 min, and incubated at 25° C. for 30 min.
A dose-response curve was prepared by plotting percent inhibition for each compound concentration, and then IC50 was calculated by fitting a curve to the plotted values and extrapolating the IC50 concentration.
`O=c1ncc(CN2CCOc3c(Cl)cc(-c4cccc5nccn45)cc3C2)c[nH]1` [Compound 74] gave an IC50 of 1 to 5 µM. `O=c1ncc(CN2CCOc3c(Cl)cc(-c4ncc5ccccn45)cc3C2)c[nH]1` [Compound 75] showed an IC50 of 0.5 to 1 µM. In the case of `O=c1ncc(CN2CCOc3c(Cl)cc(-n4ccc5nccnc54)cc3C2)c[nH]1` [Compound 76, 5-[(9-chloro-7-{pyrrolo[2,3-b]pyrazin-5-yl}-3,5-dihydro-2H-1,4-benzoxazepin-4-yl)methyl]-1H-pyrimidin-2-one trifluoroacetic acid], the IC50 is reported as > 5 µM. With `O=c1ncc(CN2CCOc3c(Cl)cc(-n4ccc5cncnc54)cc3C2)c[nH]1` [Compound 77] the IC50 was > 5 µM. For `O=c1ncc(CN2CCOc3c(Cl)cc(N4CCc5cc(F)ccc54)cc3C2)c[nH]1` [Compound 78], the IC50 was 0.1 to 0.5 µM. `O=c1ncc(CN2CCOc3c(Cl)cc(N4CCc5cc(Cl)ccc54)cc3C2)c[nH]1` [Compound 79] was tested, and the IC50 was 0.1 to 0.5 µM. `O=c1ncc(CN2CCOc3c(Cl)cc(N4CCCc5cc(F)ccc54)cc3C2)c[nH]1` [Compound 80] showed an IC50 of 1 to 5 µM. Work on `O=c1ncc(CN2CCOc3c(Cl)cc(N4CCOc5cc(F)ccc54)cc3C2)c[nH]1` [Compound 81] yielded an IC50 of 1 to 5 µM. Work on `O=c1ncc(CN2CCOc3c(Cl)cc(-c4cccc5ccccc45)cc3C2)c[nH]1` [Compound 82] yielded an IC50 of 1 to 5 µM. `O=c1ncc(CN2CCOc3c(Cl)cc(-c4cccc5c4CCCC5)cc3C2)c[nH]1` [Compound 83] was tested, and the IC50 was > 5 µM. `O=c1ncc(CN2CCOc3c(Cl)cc(-c4coc5ccccc45)cc3C2)c[nH]1` [Compound 84] was tested, and the IC50 was 0.1 to 0.5 µM. For `O=c1ncc(CN2CCOc3c(Cl)cc(-c4cccc5c4OCCO5)cc3C2)c[nH]1` [Compound 85], the IC50 was > 5 µM. `Fc1ccc2c(ccn2-c2cc(Cl)c3c(c2)CN(Cc2cc[nH]c2)CCO3)c1` [Compound 86] was tested, and the IC50 was > 5 µM. In the case of `Fc1ccc2c(ccn2-c2cc(Cl)c3c(c2)CN(Cc2ccc[nH]2)CCO3)c1` [Compound 87], the IC50 is reported as > 5 µM. `CC(C)(C)OC(=O)n1cccc1CN1CCOc2c(Cl)cc(-n3ccc4cc(F)ccc43)cc2C1` [Compound 88] was tested, and the IC50 was > 5 µM. With `Fc1ccc2c(ccn2-c2cc(Cl)c3c(c2)CN(Cc2ccco2)CCO3)c1` [Compound 89] the IC50 was > 5 µM. For `Fc1ccc2c(ccn2-c2cc(Cl)c3c(c2)CN(Cc2ccoc2)CCO3)c1` [Compound 90], the IC50 was > 5 µM. With `Fc1ccc2c(ccn2-c2cc(Cl)c3c(c2)CN(Cc2cccs2)CCO3)c1` [Compound 91] the IC50 was > 5 µM. `Fc1ccc2c(ccn2-c2cc(Cl)c3c(c2)CN(Cc2ccsc2)CCO3)c1` [Compound 92] was tested, and the IC50 was > 5 µM. `Fc1ccc2c(ccn2-c2cc(Cl)c3c(c2)CN(Cc2cnco2)CCO3)c1` [Compound 93, 9-chloro-7-(5-fluoro-1H-indol-1-yl)-4-(oxazol-5-ylmethyl)-2,3,4,5-tetrahydrobenzo[f][1,4]oxazepine] was tested, and the IC50 was 0.5 to 1 µM. Work on `Fc1ccc2c(ccn2-c2cc(Cl)c3c(c2)CN(Cc2ccno2)CCO3)c1` [Compound 94] yielded an IC50 of 1 to 5 µM. For `Fc1ccc2c(ccn2-c2cc(Cl)c3c(c2)CN(Cc2cocn2)CCO3)c1` [Compound 95], the IC50 was > 5 µM. In the case of `Fc1ccc2c(ccn2-c2cc(Cl)c3c(c2)CN(Cc2cnsc2)CCO3)c1` [Compound 96], the IC50 is reported as 1 to 5 µM. For `Fc1ccc2c(ccn2-c2cc(Cl)c3c(c2)CN(Cc2ccsn2)CCO3)c1` [Compound 97], the IC50 was > 5 µM. `Fc1ccc2c(ccn2-c2cc(Cl)c3c(c2)CN(Cc2cncs2)CCO3)c1` [Compound 99] showed an IC50 of 0.5 to 1 µM. For `Fc1ccc2c(ccn2-c2cc(Cl)c3c(c2)CN(Cc2cscn2)CCO3)c1` [Compound 100, 9-chloro-7-(5-fluoroindol-1-yl)-4-(1,3-thiazol-4-ylmethyl)-3,5-dihydro-2H-1,4-benzoxazepine], the IC50 was > 5 µM. `Fc1ccc2c(ccn2-c2cc(Cl)c3c(c2)CN(Cc2cc[nH]n2)CCO3)c1` [Compound 101] was tested, and the IC50 was > 5 µM. With `Cn1ccc(CN2CCOc3c(Cl)cc(-n4ccc5cc(F)ccc54)cc3C2)n1` [Compound 102] the IC50 was > 5 µM. `Fc1ccc2c(ccn2-c2cc(Cl)c3c(c2)CN(Cc2cn[nH]c2)CCO3)c1` [Compound 103, 4-((1H-pyrazol-4-yl)methyl)-9-chloro-7-(5-fluoro-1H-indol-1-yl)-2,3,4,5-tetrahydrobenzo[f][1,4]oxazepane] showed an IC50 of 1 to 5 µM. In the case of `CC(C)(C)OC(=O)n1cc(CN2CCOc3c(Cl)cc(-n4ccc5cc(F)ccc54)cc3C2)cn1` [Compound 104], the IC50 is reported as > 5 µM. `COc1n[nH]cc1CN1CCOc2c(Cl)cc(-n3ccc4cc(F)ccc43)cc2C1` [Compound 105, 9-chloro-7-(5-fluoroindol-1-yl)-4-[(3-methoxy-1H-pyrazol-4-yl)methyl]-3,5-dihydro-2H-1,4-benzoxazepine] was tested, and the IC50 was > 5 µM. For `Fc1ccc2c(ccn2-c2cc(Cl)c3c(c2)CN(Cc2cnc[nH]2)CCO3)c1` [Compound 107], the IC50 was > 5 µM. `Fc1ccc2c(ccn2-c2cc(Cl)c3c(c2)CN(Cc2cn[nH]n2)CCO3)c1` [Compound 108, 9-chloro-7-(5-fluoroindol-1-yl)-4-(2H-1,2,3-triazol-4-ylmethyl)-3,5-dihydro-2H-1,4-benzoxazepine] was tested, and the IC50 was 1 to 5 µM. In the case of `Fc1ccc2c(ccn2-c2cc(Cl)c3c(c2)CN(Cc2nnc[nH]2)CCO3)c1` [Compound 109, 9-chloro-7-(5-fluoroindol-1-yl)-4-(4H-1,2,4-triazol-3-ylmethyl)-3,5-dihydro-2H-1,4-benzoxazepine], the IC50 is reported as > 5 µM. For `Fc1ccc2c(ccn2-c2cc(Cl)c3c(c2)CN(Cc2ncon2)CCO3)c1` [Compound 110], the IC50 was > 5 µM. For `Fc1ccc2c(ccn2-c2cc(Cl)c3c(c2)CN(Cc2nnco2)CCO3)c1` [Compound 111, 9-chloro-7-(5-fluoroindol-1-yl)-4-(1,3,4-oxadiazol-2-ylmethyl)-3,5-dihydro-2H-1,4-benzoxazepine], the IC50 was 1 to 5 µM. With `Fc1ccc2c(ccn2-c2cc(Cl)c3c(c2)CN(Cc2nncs2)CCO3)c1` [Compound 112] the IC50 was 1 to 5 µM. Work on `Fc1ccc2c(ccn2-c2cc(Cl)c3c(c2)CN(Cc2cnsn2)CCO3)c1` [Compound 113] yielded an IC50 of 1 to 5 µM. With `Fc1ccc2c(ccn2-c2cc(Cl)c3c(c2)CN(Cc2nsc(Cl)n2)CCO3)c1` [Compound 115, 9-chloro-4-[(5-chloro-1,2,4-thiadiazol-3-yl)methyl]-7-(5-fluoroindol-1-yl)-3,5-dihydro-2H-1,4-benzoxazepine] the IC50 was > 5 µM. With `Nc1nc(CN2CCOc3c(Cl)cc(-n4ccc5cc(F)ccc54)cc3C2)ns1` [Compound 117, 3-{[9-chloro-7-(5-fluoroindol-1-yl)-3,5-dihydro-2H-1,4-benzoxazepin-4-yl]methyl}-1,2,4-thiadiazol-5-amine] the IC50 was > 5 µM. In the case of `Fc1ccc2c(ccn2-c2cc(Cl)c3c(c2)CN(Cc2nn[nH]n2)CCO3)c1` [Compound 118, 9-chloro-7-(5-fluoroindol-1-yl)-4-(2H-1,2,3,4-tetrazol-5-ylmethyl)-3,5-dihydro-2H-1,4-benzoxazepine], the IC50 is reported as > 5 µM. With `Oc1ccccc1CN1CCOc2c(Cl)cc(-n3ccc4cc(F)ccc43)cc2C1` [Compound 119] the IC50 was > 5 µM. In the case of `Oc1cccc(CN2CCOc3c(Cl)cc(-n4ccc5cc(F)ccc54)cc3C2)c1` [Compound 120], the IC50 is reported as > 5 µM. With `Oc1ccc(CN2CCOc3c(Cl)cc(-n4ccc5cc(F)ccc54)cc3C2)cc1` [Compound 121] the IC50 was > 5 µM. For `Fc1ccc2c(ccn2-c2cc(Cl)c3c(c2)CN(Cc2ccccc2C(F)F)CCO3)c1` [Compound 122, 9-chloro-4-(2-(difluoromethyl)benzyl)-7-(5-fluoro-1H-indol-1-yl)-2,3,4,5-tetrahydrobenzo[f][1,4]oxazepane], the IC50 was > 5 µM. In the case of `Fc1ccc2c(ccn2-c2cc(Cl)c3c(c2)CN(Cc2cccc(C(F)F)c2)CCO3)c1` [Compound 123], the IC50 is reported as > 5 µM. In the case of `Fc1ccc2c(ccn2-c2cc(Cl)c3c(c2)CN(Cc2ccc(C(F)F)cc2)CCO3)c1` [Compound 124], the IC50 is reported as > 5 µM. In the case of `NC(=O)[C@H]1CC[C@@H](CN2CCOc3c(Cl)cc(-n4ccc5cc(F)ccc54)cc3C2)CC1` [Compound 125], the IC50 is reported as 1 to 5 µM. Work on `NC(=O)[C@H]1CC[C@H](CN2CCOc3c(Cl)cc(-n4ccc5cc(F)ccc54)cc3C2)CC1` [Compound 126] yielded an IC50 of 0.5 to 1 µM. With `CNC(=O)[C@H]1CC[C@H](CN2CCOc3c(Cl)cc(-n4ccc5cc(F)ccc54)cc3C2)CC1` [Compound 127, trans-4-{[9-chloro-7-(5-fluoroindol-1-yl)-3,5-dihydro-2H-1,4-benzoxazepin-4-yl]methyl}-N-methylcyclohexane-1-carboxamide] the IC50 was 0.5 to 1 µM. Work on `CNC(=O)[C@H]1CC[C@@H](CN2CCOc3c(Cl)cc(-n4ccc5cc(F)ccc54)cc3C2)CC1` [Compound 128, cis-4-{[9-chloro-7-(5-fluoroindol-1-yl)-3,5-dihydro-2H-1,4-benzoxazepin-4-yl]methyl}-N-methylcyclohexane-1-carboxamide] yielded an IC50 of 1 to 5 µM. Work on `CN(C)C(=O)[C@H]1CC[C@@H](CN2CCOc3c(Cl)cc(-n4ccc5cc(F)ccc54)cc3C2)CC1` [Compound 129] yielded an IC50 of 1 to 5 µM. With `CN(C)C(=O)[C@H]1CC[C@H](CN2CCOc3c(Cl)cc(-n4ccc5cc(F)ccc54)cc3C2)CC1` [Compound 130] the IC50 was 1 to 5 µM. `O=C(O)[C@H]1CC[C@H](CN2CCOc3c(Cl)cc(-n4ccc5cc(F)ccc54)cc3C2)CC1` [Compound 131] showed an IC50 of 0.5 to 1 µM. `O=C(O)[C@H]1CC[C@@H](CN2CCOc3c(Cl)cc(-n4ccc5cc(F)ccc54)cc3C2)CC1` [Compound 132, cis-4-{[9-chloro-7-(5-fluoroindol-1-yl)-3,5-dihydro-2H-1,4-benzoxazepin-4-yl]methyl}cyclohexane-1-carboxylic acid] gave an IC50 of 1 to 5 µM. In the case of `COC(=O)[C@H]1CC[C@H](CN2CCOc3c(Cl)cc(-n4ccc5cc(F)ccc54)cc3C2)CC1` [Compound 133], the IC50 is reported as > 5 µM.
